{"source": "patent US11318113B2", "about": "“Compounds for the treatment of diseases linked to mitochondrial reactive oxygen species (ROS) production” (OP2 DRUGS, priority 2015, dated 2022)", "test_system": "TH-positive neurons in the substantia nigra of MPTP-treated mice", "assay": "Sub-chronic MPTP mouse model of Parkinson's disease, TH-positive neuron count", "format": "in vivo", "details": "5 mg/kg ip, 11 consecutive days; p<0.01", "experimental": "In this study, the potential neuroprotective effects of AOL were assessed by counting the number of tyrosine hydroxylase (TH)-positive neurons in the substantia nigra (SN) in the sub-chronic 1-methyl-4-phenyl-1,2,3,6-tetrahydropyridine (MPTP) mouse model of Parkinson's disease. Mice were treated with AOL (5 mg/kg; ip) or vehicle for 11 consecutive days. MPTP (20 mg/kg; ip) or saline was administered on treatment days 4-8. All mice were killed on day 12 following final administration of treatment.\nFor vehicle conditions, the test item was dissolved in 0.5% DMSO/0.95% Tween 20 in saline while AOL was administered intraperitoneally (i.p.) at the dose of 5 mg/kg. […]\nUnbiased stereological analysis was used to estimate the number of TH-immunopositive (TH+) neurons (Mercator, Explora Nova, La Rochelle, France). The boundaries of the SN were determined by examining the size and shape of the different TH+ neuronal groups. The volume was calculated by using the formula: V=ΣS td; where ΣS is the sum of surface areas, t is the average section thickness and d is the number of slices between two consecutive sections measured. […] The following formula was used to estimate the number of TH+ neurons: N=V(SN) (ΣQ−/ΣV(dis)); where N is the estimation of cell number, V is the volume of the SN, ΣQ− is the number of cells counted in the dissectors, and ΣV(dis) is the total volume of all the dissectors. […]"}
{"smiles": "COc1ccc(-c2cc(=S)ss2)cc1", "note": "[AOL, 5-(4-methoxyphenyl)-3H-1,2-dithiole-3-thione]", "values": [{"measurement": "increase in number of TH+ cells in the SN compared to vehicle in MPTP-treated mice", "value": 44, "unit": "%"}]}
